Reference: US9586986B2, “Substituted 7-deazapurine ribonucleosides for therapeutic uses” (Institute of Organic Chemistry and Biochemistry ASCR, v.v.i., priority 2014, dated 2017)

How the values were obtained:
Type in all cases: cell-based
A549 = experiment: Cytostatic/cytotoxic MTT assay, A549; conditions: Homo sapiens, A549; 72 h incubation; read-out: MTT, IC50 A549
Summary of the method: (§1)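 Cells were plated at 25,000-30,000/well, given 24 h pre-incubation, then treated with four-fold compound dilutions in duplicate for 72 h at 37° C., 5% CO2. MTT was added for 1-4 h and formazan was dissolved overnight in 10% SDS (pH 5.5) before reading OD at 540 nm. IC50 is the concentration giving 50% growth inhibition.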

[1] = test system: HCV subtype 2A replicon in Huh-7 cells; experiment: HCV sub-genomic reporter replicon assay, subtype 2A; conditions: Hepatitis C virus; Huh-7 cells, HCV subtype 2A replicon; read-out: Replicon 2A EC50
Description: (§2) Compounds were also tested in Huh-7 cells harboring sub-genomic reporter replicons derived from HCV subtypes 1B and 2A (ref.: Stuyver, L. J.; Whitaker, T.; McBrayer, T. R.; Hernandez-Santiago, B. I.; Lostia, S.; Tharnish, P. M.; Ramesh, M.; Chu, C. K.; Jordan, R.; Shi, J. X.; Rachakonda, S.; Watanabe, K. A.; Otto, M. J.; Schinazi, R. F. Antimicrob. Agents Chemother. 2003, 47, 244-254).

[2] = test system: Huh-7 cells harboring replicon 2A; experiment: Cytotoxicity in replicon 2A cells; conditions: HCV subtype 2A replicon
Description: as §2

CCRF-CEM = experiment: Cytostatic/cytotoxic MTT assay, CCRF-CEM; conditions: Homo sapiens, 72 h incubation, read-out: MTT, IC50 CCRF-CEM
Summary of the method: as §1

K562-TAX = experiment: Cytostatic/cytotoxic MTT assay, K562-TAX; conditions: Homo sapiens, paclitaxel resistant subline, 72 h, read-out: MTT, IC50 K562-TAX
Summary of the method: (§3)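 Human cancer lines, including daunorubicin-resistant CEM-DNR (mrp-1/mdr-1 overexpressing) and paclitaxel-resistant K562-TAX (mdr-1), seeded 25,000-30,000 cells/well, pre-incubated 24 h, then treated in duplicate with four-fold dilutions for 72 h at 37° C, 5% CO2. MTT read-out at 540 nm; IC50 from dose-response curves.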

K562 = experiment: Cytostatic/cytotoxic MTT assay, K562; conditions: Homo sapiens, K562; 72 h incubation; read-out: MTT, IC50 K562
Summary of the method: as §1

[3] = test system: HCV subtype 1B replicon in Huh-7 cells; experiment: HCV sub-genomic reporter replicon assay, subtype 1B; conditions: Hepatitis C virus; Huh-7 cells, HCV subtype 1B replicon; read-out: Replicon 1B EC50
Description: as §2

HCT116p53-/- = experiment: Cytostatic/cytotoxic MTT assay, HCT116p53-/-; conditions: Homo sapiens, HCT-116; 72 h incubation; read-out: MTT, IC50 HCT116 p53-/-
Summary of the method: as §3

[4] = test system: Huh-7 cells harboring replicon 1B; experiment: Cytotoxicity in replicon 1B cells; conditions: HCV subtype 1B replicon
Description: as §2

CEM-DNR-bulk = experiment: Cytostatic/cytotoxic MTT assay, CEM-DNR-bulk; conditions: Homo sapiens; daunorubicin resistant subline, 72 h; read-out: MTT, IC50 CEM-DNR-bulk
Summary of the method: as §3

MRC-5 = experiment: Cytostatic/cytotoxic MTT assay, MRC-5 fibroblasts; conditions: Homo sapiens, MRC5; non-malignant fibroblasts, 72 h; read-out: MTT, IC50 MRC-5
Summary of the method: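 Cells were seeded at 25,000-30,000 per well and pre-incubated 24 h before addition of four-fold compound dilutions in duplicate. After 72 h at 37 °C in 5% CO2, MTT was added for 1-4 h, formazan dissolved in 10% SDS (pH 5.5) overnight, and OD read at 540 nm; IC50 taken from dose-response curves.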

Structure (SMILES) | IC50 (A549) [µM] | EC50 [1] [µM] | CC50 [2] [µM] | IC50 (CCRF-CEM) [µM] | IC50 (K562-TAX) [µM] | IC50 (K562) [µM] | EC50 [3] [µM] | IC50 (HCT116p53-/-) [µM] | CC50 [4] [µM] | IC50 (CEM-DNR-bulk) [µM] | IC50 (MRC-5) [µM]
CSc1ncnc2c1c(-c1ccsc1)cn2[C@@H]1O[C@H](CO)[C@@H](O)[C@H]1O [Compound 2d, 4-Methylsulfanyl-7-(β-D-ribofuranosyl)-5-(thiophen-3-yl)-7H-pyrrolo[2,3-d]pyrimidine] | > 20 | > 44 | > 44 | > 20 | > 20 | 0.45 | 10.9 | > 20 | > 44 | > 20 | > 100
COc1ncnc2c1c(-c1ccccc1)cn2[C@@H]1O[C@H](CO)[C@@H](O)[C@H]1O [Compound 1e, 4-Methoxy-5-phenyl-7-(β-D-ribofuranosyl)-7H-pyrrolo[2,3-d]pyrimidine] | > 20 | > 44 | > 44 | > 20 | > 20 | > 20 | 21 | > 20 | > 44 | > 20 | > 100
COc1ncnc2c1c(I)cn2[C@@H]1O[C@H](CO)[C@@H](O)[C@H]1O [Compound 1h, 5-iodo-4-methoxy-7-(β-D-ribofuranosyl)-7H-pyrrolo[2,3-d]pyrimidine, reference compound] | > 20 | > 44 | > 44 | 1.15 | 14.8 | > 20 | > 44 | > 20 | > 44 | > 20 | 63
CN(C)c1ncnc2c1c(-c1ccoc1)cn2[C@@H]1O[C@H](CO)[C@@H](O)[C@H]1O [Compound 4b, 4-Dimethylamino-5-(furan-3-yl)-7-(β-D-ribofuranosyl)-7H-pyrrolo[2,3-d]pyrimidine] | > 20 | > 44 | > 44 | 13.3 | 14.9 | 1.54 | 7.88 | > 20 | > 44 | > 20 | > 100
COc1ncnc2c1c(-c1cccs1)cn2[C@@H]1O[C@H](CO)[C@@H](O)[C@H]1O [Compound 1c, 4-Methoxy-7-(β-D-ribofuranosyl)-5-(thiophen-2-yl)-7H-pyrrolo[2,3-d]pyrimidine] | 4.85 | > 44 | > 44 | 0.09 | 6.2 | 0.07 | 1.08 | 0.44 | > 44 | 12.1 | 43.2
